Measured values from paper PMC4569013, “Massive Bioaccumulation and Self‐Assembly of Phenazine Compounds in Live Cells” (Advanced Science, 2015).

Key:
[1] = tested on: RAW264.7 macrophages; experiment: Linear diattenuation anisotropy microscopy (LC-PolScope) of intracellular inclusions; format: cell-based; conditions: 72 h, compared with clofazimine
Method: (§1) The optical design was built on a Nikon Eclipse Ti microscope equipped with the liquid crystal universal compensator consisting of a linear polarizer and a pair of liquid crystal devices. The LC compensator was part of the transillumination path and was used to illuminate the specimen with monochromatic, linearly polarized light of varying polarization orientation. There was no polarization analyzer present in the imaging path. Quantitative intensity images were recorded by a charge‐coupled device camera and a desktop computer calculated the average transmittance, the differential transmittance and the polarization orientation leading to maximum transmittance for each optically resolved picture element (pixel). Acquisition and processing steps were controlled using OpenPolScope plugins for the open source imaging programs ImageJ and Micro‐Manager (MMStudio version 1.4.15). With the combination of hardware and software, polarized light images were acquired at high sensitivity and high spatial resolution for measuring linear diattenuation.
(§2) Linear Diattenuation Microscopy Data Acquisition and Analysis: After RAW264.7 macrophages or MDCK epithelial cells were incubated with the compound in the chambered cover glasses for 72 h, at the same time of performing transmitted microscopic examination, cell specimens were examined under linear diattenuation microscopy using the Nikon Eclipse Ti microscope with 40×/0.75 NA objective and monochromatic light of two different center wavelengths, 546 and 623 nm (passband 30 nm). In the OpenPolScope software, Pol‐Acquisition and Pol‐Analyzer plugins (version 2.0) were used to capture, process, and analyze the attenuation images. Before imaging the samples, the setup was calibrated using a specially prepared slide featuring four small pieces of linear polarization filters. The transmission axes of the filters were oriented in steps of 45° providing a means to calibrate the LC universal compensator settings. After the calibration, a sample slide was inserted and first a sequence of polarized light images of a clear, fully transmitting sample area was recorded, followed by an image sequence featuring the cells under investigation. The images of the clear area were used to determine instrument factors which were needed for computing the average and the polarization dependent loss in transmittance in cellular components visible in the second image.10
(§3) Linear diattenuation is a material property that can occur in materials such as crystals, in which the light absorbing molecules are arranged with a preferred orientation. The molecular alignment creates principal axes in the material denoting polarization directions for which light is maximally and minimally transmitted. Diattenuation is the difference between maximal (T max) and minimal (T min) transmittance, divided by their sum (Equation (1)): (1) Diattenuation=Tmax‐Tmin/Tmax+Tmin
(§4) To simultaneously measure the attenuation of many crystals with arbitrary orientations, we developed algorithms based on four specimen images, each recorded using light of a different polarization orientation: 0°, 45°, 90°, and 135°.10 The four raw images were used to calculate the average and differential transmittance and the orientation of maximum transmittance in every resolved image pixel. To isolate and analyze quantitative data of the objects (crystals), the anisotropy or maximum transmittance axis orientation image file opened in ImageJ was inverted (Ctrl + Shift + I) and thresholded using ImageJ's default automatic method (“Binary” → “Convert to Mask”). By using the ImageJ's algorithm, “Analyze Particles,” data of anisotropy or maximum transmittance axis orientation of objects in images could be obtained automatically. Diattenuation ratios were calculated by dividing anisotropy at 623 nm by that at 546 nm.

[2] = tested on: MDCK epithelial cells; experiment: as above; format: cell-based, Canine; conditions: 72 h, compared with clofazimine
Method: as §1, §2, §3, §4

[3] = tested on: RAW264.7 macrophages; experiment: Confocal fluorescence microscopy, intracellular localization of inclusions; format: cell-based; conditions: 5 × 10^−6 M, 72 h, live cells
Method: Confocal Fluorescent Microscopy: A Nikon A1 confocal microscope was used for further investigation of live cells incubated with chiral pairs of compounds (T and U) and the parent compound, P. Since crystals or vesicular forms containing chemicals inside the cells incubated with Compound P, T, or U were fluorescent when viewed with the TRITC filter sets, intracellular distribution of these compounds in RAW264.7 or MDCK cells were visualized using a Nikon A1 confocal microscopy (Nikon Instruments Inc., Melville, NY) equipped with diode‐based lasers and a Nikon Apo 60×/1.4 NA oil immersion lens. Briefly, RAW264.7 macrophages or MDCK epithelial cells were seeded in the 8‐well Nunc Lab‐Tek II chambered (#1.5) cover glasses (Thermo Scientific, Pittsburgh, PA) at a density of 8 × 10^3 cells cm^−2 (RAW264.7 cells) or 1.5 × 10^4 cells cm^−2 (MDCK cells) and allowed to adhere overnight (37 °C, 5% CO2). Then, 5 × 10^−6 M of Compound “P” or the related isomers, “T” or “U” in DMEM with 5% FBS (300 μL) was added to the cells and the cells were incubated for 72 h (37 °C, 5% CO2). For live cell imaging, after the removal of media, cells were washed with HBSS buffer twice. Hoechst 33342 (Invitrogen, Carlsbad, CA) was used for staining cell nuclei and FM 1‐43 (Molecular Probes T35356, Invitrogen) for the plasma membrane. Cells were incubated with 300 μL of 1:1 (v/v) dye mixtures of 5 μg mL^−1 Hoechst 33342 and 7 × 10^−6 M FM 1‐43 in HBSS for 15 min at room temperature. Without fixative, the confocal imaging of the live cells was performed using lasers for DAPI (excitation/emission wavelength: 405 nm/450 ± 25 nm), FITC (488 nm/525 ± 25 nm), and TRITC (561 nm/596 ± 25 nm) channels. Z‐stack images of the cells were captured along the Z‐axis (interval, 1 μm) in three fluorescence channels and analyzed by using the Nikon NIS‐Elements 3.2 confocal software (Nikon Instruments Inc., Melville, NY). […]

C[C@@H](CN=c1cc2n(-c3ccc(Cl)cc3)c3ccccc3nc-2cc1Nc1ccc(Cl)cc1)c1ccccc1 [Compound U]
Diattenuation anisotropy of intracellular inclusions [1]: even higher anisotropy | Diattenuation anisotropy of intracellular inclusions [2]: only in macrophages | Intracellular localization of compound (fluorescence, TRITC channel) [3]: localized at the periphery of the cell nuclei

Clc1ccc(Nc2cc3nc4ccccc4n(-c4ccc(Cl)cc4)c-3cc2=NCCc2ccccc2)cc1 [Compound P]
Diattenuation anisotropy of intracellular inclusions [1]: higher diattenuation anisotropy | Diattenuation anisotropy of intracellular inclusions [2]: higher diattenuation anisotropy | Intracellular localization of compound (fluorescence, TRITC channel) [3]: localized at the periphery of the cell nuclei
